The numbers were not newly measured in patent US20160286792A1, “METHOD AND SYSTEM FOR PEST CONTROL” (priority 2013, published 2016), which cites them from elsewhere.

Like-named read-outs stand apart in the source and are kept apart here.

Series [1] deals with termites.
Series [2] relates to humans.
The conditions of series [3]: aqueous, at 25 degrees.

For the molecule `Cc1c(COC(=O)[C@@H]2[C@H](/C=C(\Cl)C(F)(F)F)C2(C)C)cccc1-c1ccccc1` (racemic) [Bifenthrin], the values for the length of protection in series [1] (applied at 0.05% concentration), in series [1] (applied at 0.1% concentration) and in series [1] (applied at 0.25% concentration) were 10 years, “at least 10 years” and 3 years, respectively.

For `O=[N+]([O-])NC1=NCCN1Cc1ccc(Cl)nc1` [Imidacloprid], the length of protection entry in series [1] (applied at 0.25% concentration) is “up to 3 years”. In series [2], the toxicity to humans result is given as “low to medium toxicity”.

As to `CCOP(=S)(OCC)Oc1nc(Cl)c(Cl)cc1Cl` [chlorpyrifos, Chlorpyrifos], the length of protection result in series [1] (concentration varies depending on the brand) was “up to 5 years”.

For the molecule calcium sulphate dihydrate [gypsum], the “concentration of saturated solution” value in series [3] was 2000 to 2500 µg/mL.
